Results as given in ChEMBL document CHEMBL1201862, “PubChem BioAssay data set” (2004).
Activity calls are given as the source filed them.

Assays:
[1] = molecular target: T1, DNA repair and recombination protein RAD54-like (Homo sapiens, UniProt Q92698); assay: inhibitors of human RAD54 branch migration, confirmation, biochemical, fluorescence, cherry-picked samples, dose series (AID 651657); format: functional
T1 sequence (Q92698 whole entry): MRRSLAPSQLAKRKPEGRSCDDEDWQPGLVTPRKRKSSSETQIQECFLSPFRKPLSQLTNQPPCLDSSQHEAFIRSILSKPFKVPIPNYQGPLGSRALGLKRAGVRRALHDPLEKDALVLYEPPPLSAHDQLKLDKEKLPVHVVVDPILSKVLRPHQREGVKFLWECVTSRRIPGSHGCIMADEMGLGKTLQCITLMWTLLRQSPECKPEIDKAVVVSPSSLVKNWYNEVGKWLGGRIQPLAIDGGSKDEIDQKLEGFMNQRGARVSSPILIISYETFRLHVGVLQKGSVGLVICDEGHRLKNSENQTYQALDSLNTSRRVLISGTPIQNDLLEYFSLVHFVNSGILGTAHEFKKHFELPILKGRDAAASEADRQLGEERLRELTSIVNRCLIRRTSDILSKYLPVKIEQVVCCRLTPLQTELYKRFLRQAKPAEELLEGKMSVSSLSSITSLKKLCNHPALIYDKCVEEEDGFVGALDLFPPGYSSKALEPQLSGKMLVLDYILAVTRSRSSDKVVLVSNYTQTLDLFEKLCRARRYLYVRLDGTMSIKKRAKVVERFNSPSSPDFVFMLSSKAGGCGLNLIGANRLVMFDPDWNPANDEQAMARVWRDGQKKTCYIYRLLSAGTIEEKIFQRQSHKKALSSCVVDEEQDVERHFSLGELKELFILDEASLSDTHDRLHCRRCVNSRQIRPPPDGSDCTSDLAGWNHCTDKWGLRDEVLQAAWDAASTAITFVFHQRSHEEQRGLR

Leucine aminopeptidase = molecular target: T2, Leucine aminopeptidase (Plasmodium falciparum 3D7, UniProt Q8IL11); assay: P. falciparum M17LAP inhibitors, primary screen, biochemical, fluorogenic H-Leu-NHMec substrate, 1536-well (AID 1619); format: functional
T2 sequence (Q8IL11 whole entry): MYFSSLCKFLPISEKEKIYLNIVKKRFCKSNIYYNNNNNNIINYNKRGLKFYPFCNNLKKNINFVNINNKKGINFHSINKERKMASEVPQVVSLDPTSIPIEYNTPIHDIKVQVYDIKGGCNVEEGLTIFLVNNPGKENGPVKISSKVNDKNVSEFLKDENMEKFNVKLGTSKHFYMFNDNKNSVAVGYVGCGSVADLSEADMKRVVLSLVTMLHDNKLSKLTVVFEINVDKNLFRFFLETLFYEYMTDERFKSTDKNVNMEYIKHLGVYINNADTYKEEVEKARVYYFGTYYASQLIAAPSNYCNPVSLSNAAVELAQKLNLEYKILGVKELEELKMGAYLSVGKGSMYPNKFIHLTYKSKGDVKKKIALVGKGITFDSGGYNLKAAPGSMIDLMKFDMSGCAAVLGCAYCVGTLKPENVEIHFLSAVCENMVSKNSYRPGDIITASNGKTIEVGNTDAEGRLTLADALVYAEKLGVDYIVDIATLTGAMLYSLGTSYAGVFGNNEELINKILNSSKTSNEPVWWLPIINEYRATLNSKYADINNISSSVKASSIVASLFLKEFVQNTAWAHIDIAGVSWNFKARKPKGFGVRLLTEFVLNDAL

Aminopeptidase N = molecular target: T3, Aminopeptidase N (Plasmodium falciparum FcB1/Columbia, UniProt O96935); assay: P. falciparum M1AAP inhibitors, biochemical, fluorogenic H-Leu-NHMec substrate, 1536-well (AID 1445); design: species or system Plasmodium falciparum 3D7, 3D7
T3 sequence (O96935 whole entry): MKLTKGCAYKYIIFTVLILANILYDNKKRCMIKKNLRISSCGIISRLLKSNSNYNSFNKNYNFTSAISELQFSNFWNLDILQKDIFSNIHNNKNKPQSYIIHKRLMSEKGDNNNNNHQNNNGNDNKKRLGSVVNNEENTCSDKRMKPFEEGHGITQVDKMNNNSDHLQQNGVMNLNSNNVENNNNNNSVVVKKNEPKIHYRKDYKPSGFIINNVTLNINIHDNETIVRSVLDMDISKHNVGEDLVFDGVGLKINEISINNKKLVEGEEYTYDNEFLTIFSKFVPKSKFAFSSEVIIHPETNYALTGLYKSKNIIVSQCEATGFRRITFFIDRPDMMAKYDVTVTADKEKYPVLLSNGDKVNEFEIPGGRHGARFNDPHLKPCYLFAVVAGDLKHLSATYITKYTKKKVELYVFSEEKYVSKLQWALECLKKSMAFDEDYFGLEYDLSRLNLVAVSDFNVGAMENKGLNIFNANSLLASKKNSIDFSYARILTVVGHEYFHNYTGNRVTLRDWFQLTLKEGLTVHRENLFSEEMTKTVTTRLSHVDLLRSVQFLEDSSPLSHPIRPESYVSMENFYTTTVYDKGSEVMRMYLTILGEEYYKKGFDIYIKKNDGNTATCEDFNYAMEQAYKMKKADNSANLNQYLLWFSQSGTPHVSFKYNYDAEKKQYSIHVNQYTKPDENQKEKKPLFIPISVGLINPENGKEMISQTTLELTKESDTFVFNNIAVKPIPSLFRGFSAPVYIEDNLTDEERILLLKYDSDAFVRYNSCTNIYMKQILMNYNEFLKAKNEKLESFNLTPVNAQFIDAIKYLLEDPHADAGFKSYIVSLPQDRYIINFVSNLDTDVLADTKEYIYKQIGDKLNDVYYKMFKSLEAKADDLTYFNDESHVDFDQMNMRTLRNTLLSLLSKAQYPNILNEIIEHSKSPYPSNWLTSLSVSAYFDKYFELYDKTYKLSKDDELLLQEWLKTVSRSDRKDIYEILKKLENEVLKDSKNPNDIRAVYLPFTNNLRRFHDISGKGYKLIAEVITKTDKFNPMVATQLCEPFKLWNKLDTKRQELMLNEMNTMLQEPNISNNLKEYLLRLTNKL

[2] = molecular target: Induced myeloid leukemia cell differentiation protein Mcl-1 (Homo sapiens, UniProt Q07820); format: functional
[3] = THP-1 cell cytotoxicity, dose response, cytotoxicity control for non-replicating M. tuberculosis project (AID 489025); format: functional
cells = format: functional
[4] = microbe, parasite or virus in culture; format: functional; conditions: Mycobacterium tuberculosis
[5] = molecular target: T4, Zinc finger protein mex-5 (Caenorhabditis elegans, UniProt Q9XUB2); assay: MEX-5/TCR-2 RNA interaction inhibitors, dose response, biochemical, C. elegans, fluorescence polarization (AID 1960)
T4 sequence (Q9XUB2 whole entry): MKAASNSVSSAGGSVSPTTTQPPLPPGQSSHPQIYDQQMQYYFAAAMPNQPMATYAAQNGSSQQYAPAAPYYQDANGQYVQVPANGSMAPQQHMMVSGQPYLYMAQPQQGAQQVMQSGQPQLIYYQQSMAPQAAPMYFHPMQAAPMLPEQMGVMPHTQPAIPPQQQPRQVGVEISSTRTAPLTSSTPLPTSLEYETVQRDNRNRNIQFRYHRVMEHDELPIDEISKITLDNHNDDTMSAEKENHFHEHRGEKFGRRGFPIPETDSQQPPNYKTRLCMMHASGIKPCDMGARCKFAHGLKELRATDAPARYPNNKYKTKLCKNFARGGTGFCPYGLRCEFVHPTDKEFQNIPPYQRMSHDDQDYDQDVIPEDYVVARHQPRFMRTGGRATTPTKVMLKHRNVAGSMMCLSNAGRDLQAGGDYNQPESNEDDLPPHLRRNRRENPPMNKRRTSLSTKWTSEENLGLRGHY

[6] = molecular target: T5, RNA-binding protein pos-1 (Caenorhabditis elegans, UniProt G5EF15); assay: inhibitors of POS-1/mex-3 RNA binding, dose response, biochemical, fluorescence polarization (AID 1964);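 note: purified POS-1 fused to maltose binding protein made in E. coli; potency of compounds blocking POS-1 binding to fluorescent RNA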
T5 sequence (G5EF15 whole entry): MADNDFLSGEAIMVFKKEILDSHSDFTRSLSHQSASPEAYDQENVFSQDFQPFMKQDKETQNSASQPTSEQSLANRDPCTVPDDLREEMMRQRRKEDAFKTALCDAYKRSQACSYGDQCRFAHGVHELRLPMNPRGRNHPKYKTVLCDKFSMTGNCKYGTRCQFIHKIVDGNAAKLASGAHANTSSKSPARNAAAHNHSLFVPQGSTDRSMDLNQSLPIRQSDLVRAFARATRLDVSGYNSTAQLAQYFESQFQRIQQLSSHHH

[7] = molecular target: Voltage-dependent T-type calcium channel subunit alpha-1H (Homo sapiens, UniProt O95180); format: functional;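 note: channel activity triggered by adding a high calcium stimulation buffer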
BJ [8] = assay: cytotoxicity toward BJ-TERT fibroblasts, dose response, cell-based, RAS-independent, luminescence (AID 1933); format: functional; conditions: Homo sapiens
BJ [9] = assay: cytotoxicity toward BJ-TERT-LT-ST fibroblasts, dose response, cell-based, RAS-independent, luminescence (AID 1935); format: functional; conditions: Homo sapiens;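 note: BJ fibroblasts immortalized with TERT plus LT and ST oncogenes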
[10] = cytotoxicity toward DRD oncogenic fibroblasts, dose response, cell-based, non-viral oncogenic, luminescence (AID 1934); format: functional; conditions: Homo sapiens
BJ [11] = assay: cells; format: functional, cell-based; conditions: Homo sapiens
[12] = molecular target: T6, Ubiquitin-conjugating enzyme E2 N (Homo sapiens, UniProt P61088); format: functional;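 note: Dose-response confirmation in a TR-FRET assay detecting UBC13-driven polyubiquitin chain formation, inhibition measured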
T6 sequence (P61088 whole entry): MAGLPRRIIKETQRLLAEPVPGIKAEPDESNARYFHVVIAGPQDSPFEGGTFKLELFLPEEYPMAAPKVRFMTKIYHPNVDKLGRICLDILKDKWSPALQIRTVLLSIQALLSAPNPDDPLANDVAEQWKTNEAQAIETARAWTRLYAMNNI

[13] = cytotoxicity in HEK-293T cells, dose response, cytotoxicity control for TCR NF-kB inhibitor project, luminescence, T-cell screen hits (AID 489026); format: functional, cell-based;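 note: cells exposed to compound about 14 hours before the viability readout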
INS1 = assay: beta cell apoptosis inhibitors, cytokine rescue, dose response, luminescence, retest (AID 449756); format: functional, cell-based; conditions: Rattus norvegicus;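 note: cell death triggered by IL-1 beta plus TNF-alpha plus IFN-gamma mixture; protective hits raise ATP signal compared with cytokine alone wells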
[14] = molecular target: DNA dC->dU-editing enzyme APOBEC-3G (Homo sapiens, UniProt Q9HC16); format: functional;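 note: Dose-response counterscreen measuring inhibition of APOBEC3G DNA deaminase activity, run while confirming APOBEC3A inhibitors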
[15] = molecular target: DNA dC->dU-editing enzyme APOBEC-3A (Homo sapiens, UniProt P31941); assay: Dose Response confirmation of small molecule APOBEC3A DNA Deaminase Inhibitors via a fluorescence-based single-stranded DNA deaminase assay. [Related pubchem assays (depositor defined):AID493011, AID493024]; format: functional
[16] = Luminescence Cell-Based Dose Confirmation HTS to Identify Inhibitors of Platelet Dense Granule Release. [Related pubchem assays: 1663 (Primary HTS), 1678 (Summary of Project)]; format: functional
[17] = molecular target: Luciferin 4-monooxygenase (Photinus pyralis, UniProt P08659); assay: firefly luciferase enzyme inhibitors, dose response, biochemical, luminescence (AID 1891)
Luciferin 4-monooxygenase, sequence (P08659 whole entry): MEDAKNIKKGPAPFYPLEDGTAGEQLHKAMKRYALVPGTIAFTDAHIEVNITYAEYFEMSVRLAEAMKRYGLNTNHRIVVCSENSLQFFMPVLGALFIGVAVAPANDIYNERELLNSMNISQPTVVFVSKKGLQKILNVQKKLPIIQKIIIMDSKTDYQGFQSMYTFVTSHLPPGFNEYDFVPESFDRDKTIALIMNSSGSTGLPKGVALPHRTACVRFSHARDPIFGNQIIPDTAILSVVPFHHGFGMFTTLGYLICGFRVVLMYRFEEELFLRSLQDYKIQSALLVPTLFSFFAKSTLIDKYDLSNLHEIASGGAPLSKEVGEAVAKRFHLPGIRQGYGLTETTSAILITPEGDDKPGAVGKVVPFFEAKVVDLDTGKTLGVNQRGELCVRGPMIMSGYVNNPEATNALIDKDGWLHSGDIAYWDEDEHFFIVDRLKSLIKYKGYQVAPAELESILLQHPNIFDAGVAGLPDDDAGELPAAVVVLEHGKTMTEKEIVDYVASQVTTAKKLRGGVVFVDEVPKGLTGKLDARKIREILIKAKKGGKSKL

Voltage-dependent T-type calcium channel subunit alpha-1H, sequence (O95180 whole entry): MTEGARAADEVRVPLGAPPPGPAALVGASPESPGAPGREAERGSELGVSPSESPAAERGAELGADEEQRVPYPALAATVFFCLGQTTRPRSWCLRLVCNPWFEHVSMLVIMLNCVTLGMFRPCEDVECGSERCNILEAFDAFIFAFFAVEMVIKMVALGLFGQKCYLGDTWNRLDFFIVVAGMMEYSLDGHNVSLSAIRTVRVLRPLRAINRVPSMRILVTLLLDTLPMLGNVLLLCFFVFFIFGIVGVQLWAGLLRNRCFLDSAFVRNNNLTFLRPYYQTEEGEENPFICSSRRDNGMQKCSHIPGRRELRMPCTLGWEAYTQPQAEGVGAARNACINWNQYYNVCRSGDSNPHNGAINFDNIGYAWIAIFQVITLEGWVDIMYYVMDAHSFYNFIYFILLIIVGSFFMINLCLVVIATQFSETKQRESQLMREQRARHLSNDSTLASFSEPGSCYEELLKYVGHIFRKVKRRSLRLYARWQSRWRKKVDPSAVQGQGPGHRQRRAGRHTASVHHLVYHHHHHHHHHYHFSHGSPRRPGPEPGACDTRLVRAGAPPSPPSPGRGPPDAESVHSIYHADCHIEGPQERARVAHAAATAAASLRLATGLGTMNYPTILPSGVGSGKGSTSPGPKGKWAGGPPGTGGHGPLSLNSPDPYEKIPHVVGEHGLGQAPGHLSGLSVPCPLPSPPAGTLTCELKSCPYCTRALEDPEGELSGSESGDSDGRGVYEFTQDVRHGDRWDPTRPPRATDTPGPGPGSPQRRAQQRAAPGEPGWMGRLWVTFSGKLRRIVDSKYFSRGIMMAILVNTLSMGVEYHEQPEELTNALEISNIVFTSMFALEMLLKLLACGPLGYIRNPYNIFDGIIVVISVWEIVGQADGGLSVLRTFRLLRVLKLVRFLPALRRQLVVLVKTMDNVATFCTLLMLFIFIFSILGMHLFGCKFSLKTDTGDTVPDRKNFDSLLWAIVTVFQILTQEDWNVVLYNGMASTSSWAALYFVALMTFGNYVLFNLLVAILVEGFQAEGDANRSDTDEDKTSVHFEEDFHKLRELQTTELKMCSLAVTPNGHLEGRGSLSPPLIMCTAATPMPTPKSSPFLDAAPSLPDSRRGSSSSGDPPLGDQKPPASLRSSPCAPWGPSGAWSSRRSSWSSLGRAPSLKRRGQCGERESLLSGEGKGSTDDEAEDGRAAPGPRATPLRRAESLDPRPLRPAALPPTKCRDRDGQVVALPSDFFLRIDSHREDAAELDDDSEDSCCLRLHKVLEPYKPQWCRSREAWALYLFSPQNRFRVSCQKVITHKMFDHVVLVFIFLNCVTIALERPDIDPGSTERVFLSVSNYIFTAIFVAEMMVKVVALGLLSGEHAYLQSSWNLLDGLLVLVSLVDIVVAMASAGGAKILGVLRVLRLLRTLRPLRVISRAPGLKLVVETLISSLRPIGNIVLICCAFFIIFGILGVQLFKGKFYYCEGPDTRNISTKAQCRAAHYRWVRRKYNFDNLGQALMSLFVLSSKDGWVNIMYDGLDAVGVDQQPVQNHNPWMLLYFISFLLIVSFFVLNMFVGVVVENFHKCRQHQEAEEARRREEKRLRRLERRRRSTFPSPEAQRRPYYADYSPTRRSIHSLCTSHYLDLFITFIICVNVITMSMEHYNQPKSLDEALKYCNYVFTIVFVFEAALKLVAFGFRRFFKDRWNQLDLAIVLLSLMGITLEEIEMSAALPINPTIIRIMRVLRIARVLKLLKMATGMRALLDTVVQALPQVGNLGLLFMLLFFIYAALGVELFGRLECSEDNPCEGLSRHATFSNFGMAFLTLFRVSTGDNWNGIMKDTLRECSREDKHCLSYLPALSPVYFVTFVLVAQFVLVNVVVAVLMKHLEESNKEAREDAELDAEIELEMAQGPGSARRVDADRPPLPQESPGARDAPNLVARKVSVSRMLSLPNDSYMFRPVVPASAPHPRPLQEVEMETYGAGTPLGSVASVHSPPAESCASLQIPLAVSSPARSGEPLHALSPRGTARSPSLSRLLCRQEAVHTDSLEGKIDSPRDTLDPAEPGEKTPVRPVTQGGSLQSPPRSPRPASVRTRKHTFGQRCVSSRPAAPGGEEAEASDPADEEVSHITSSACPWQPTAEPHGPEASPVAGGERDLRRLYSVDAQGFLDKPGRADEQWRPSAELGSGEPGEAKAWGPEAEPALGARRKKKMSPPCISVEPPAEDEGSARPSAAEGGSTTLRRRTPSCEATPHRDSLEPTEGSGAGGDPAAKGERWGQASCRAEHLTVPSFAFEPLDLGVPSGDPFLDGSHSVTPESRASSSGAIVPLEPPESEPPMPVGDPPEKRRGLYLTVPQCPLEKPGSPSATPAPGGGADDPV
DNA dC->dU-editing enzyme APOBEC-3G, sequence (Q9HC16 whole entry): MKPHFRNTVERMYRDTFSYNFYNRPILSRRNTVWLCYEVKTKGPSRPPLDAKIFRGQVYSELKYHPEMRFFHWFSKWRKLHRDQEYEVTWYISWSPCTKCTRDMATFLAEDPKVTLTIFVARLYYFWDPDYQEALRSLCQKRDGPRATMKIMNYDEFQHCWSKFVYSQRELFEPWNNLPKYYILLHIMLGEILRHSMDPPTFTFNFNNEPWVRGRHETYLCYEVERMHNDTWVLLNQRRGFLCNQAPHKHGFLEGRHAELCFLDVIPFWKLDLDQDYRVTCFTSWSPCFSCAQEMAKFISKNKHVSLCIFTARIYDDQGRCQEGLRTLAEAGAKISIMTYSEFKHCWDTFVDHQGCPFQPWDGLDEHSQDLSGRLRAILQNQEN
DNA dC->dU-editing enzyme APOBEC-3A, sequence (P31941 whole entry): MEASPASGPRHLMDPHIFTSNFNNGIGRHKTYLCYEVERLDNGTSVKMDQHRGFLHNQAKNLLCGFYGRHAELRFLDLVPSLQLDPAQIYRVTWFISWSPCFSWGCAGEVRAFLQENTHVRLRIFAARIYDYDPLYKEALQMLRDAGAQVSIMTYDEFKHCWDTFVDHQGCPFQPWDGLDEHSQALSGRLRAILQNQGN
Induced myeloid leukemia cell differentiation protein Mcl-1, sequence (Q07820 whole entry): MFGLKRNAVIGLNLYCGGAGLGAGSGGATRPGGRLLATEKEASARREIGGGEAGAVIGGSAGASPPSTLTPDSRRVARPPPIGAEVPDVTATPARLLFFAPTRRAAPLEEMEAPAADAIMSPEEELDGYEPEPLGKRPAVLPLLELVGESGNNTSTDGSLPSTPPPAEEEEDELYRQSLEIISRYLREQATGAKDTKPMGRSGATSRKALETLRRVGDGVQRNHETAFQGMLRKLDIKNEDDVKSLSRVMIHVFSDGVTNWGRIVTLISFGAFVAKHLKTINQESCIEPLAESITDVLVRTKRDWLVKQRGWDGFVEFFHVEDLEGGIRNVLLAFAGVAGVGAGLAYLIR

CC(C)N1CCc2c(sc(NC(=O)c3ccc(C(=O)c4ccccc4)cc3)c2C(N)=O)C1
AC50 [1]: 68.7 µM (active)

Cc1ccc2[nH]c(C)c(/C=C3/C(=N)N4C(=NC3=O)SN=C4S(=O)(=O)C(C)C)c2c1
IC50 (Leucine aminopeptidase): 7.16 µM (active)
IC50 (Aminopeptidase N): 9.85 µM (active)
IC50 [2]: 11.8 µM (not active)

CN1C(=O)/C(=C/c2cccc(Cl)c2)Sc2ccc(C(=O)N3CCCC3)cc21
CC50 [3]: 9.59 µM (active)
IC50 (cells): 34.4 µM (active)
CC50 [4]: 25.5 µM (active)

CCOC(=O)c1cc(=O)n2nc(-c3ccccc3F)nc2s1
EC50 [5]: > 300 µM (not active)
EC50 [6]: > 300 µM (not active)
IC50 (Leucine aminopeptidase): 31.2 µM (active)

Cc1cccc(C2=NCC(=O)N(CC(=O)NCc3ccco3)c3sc4c(c32)CCCC4)c1
EC50 [7]: 4.37 µM (active)

CCCCNC(=S)Nc1ccc2cn[nH]c2c1
IC50 (Leucine aminopeptidase): 75.6 µM (active)

Cc1ccc(CC(=O)N2CCN(c3ccc([N+](=O)[O-])cc3)CC2)cc1
CC50 [3]: > 40 µM (active)

O=C(Nn1c(C2CCC2)nc2ccccc2c1=O)C1CCC1
IC50 (Aminopeptidase N): 48.2 µM (active)

COc1cccc(CNC(=O)C2CCN(Cc3cnn(-c4ccccc4)c3-n3cccc3)CC2)c1
EC50 [7]: 9.81 µM (active)

O=C(CCl)Nc1ccccc1C(=O)NCc1ccccc1
EC50 (BJ [8]): > 150 µM (not active)
EC50 (BJ [9]): > 150 µM (not active)
EC50 [10]: > 150 µM (inconclusive)
EC50 (BJ [11]): > 150 µM (not active)

CCn1c(=O)c2cc(C(=O)NCCN(C)C)sc2c2ccccc21
IC50 [12]: > 20 µM (inactive)
AC50 [1]: 30.7 µM (active)

CCN(c1ccccc1)S(=O)(=O)c1ccc(C(=O)NC2CCN(Cc3ccccc3)CC2)cc1
IC50 [13]: > 80 µM (inactive)
AC50 (INS1): 2.31 µM (active)

CCOc1ccc2[nH]c3c(NCCN(C)C)ncnc3c2c1
AC50 [1]: 55.6 µM (active)

CCn1nc(C(=O)Nc2cccc3ccccc23)c(Cl)c1Cl
EC50 [7]: 10.5 µM (active)

CC(C)=NN=C(N)NC(=S)Nc1ccc(C)cc1
IC50 (Leucine aminopeptidase): 59.3 µM (active)

CC(c1nc2ccccc2o1)N1C(=O)c2ccccc2C1=O (stereo unspecified)
IC50 (Aminopeptidase N): 79.5 µM (active)

CCn1cc(C(=O)NCCN(C)C)c(=O)c2cc(F)c(N3CCN(C)CC3)cc21
AC50 [1]: 21.1 µM (active)

Nc1cc(N)nc(SCC(=O)Nc2ccc(Br)cc2Cl)n1
IC50 [14]: 6.06 µM (active)
IC50 [15]: 4.42 µM (active)

O=C(Nc1ccccc1)Nc1ccc(C(=O)N2CCCC2)cc1
EC50 [16]: 3.93 µM (active)
EC50 (BJ [8]): 9.11 µM (active)
EC50 (BJ [9]): > 150 µM (inconclusive)
EC50 [10]: 7.86 µM (active)
EC50 (BJ [11]): 9.01 µM (active)
EC50 [17]: 0.571 µM (active)

COC(=O)c1[nH]c2ccc(Cl)cc2c1NC(=O)CN1CCc2cc(OC)c(OC)cc2C1
EC50 [16]: > 112 µM (not active)
IC50 [14]: 7.77 µM (active)
IC50 [15]: 3.18 µM (active)
EC50 [17]: > 112 µM (not active)

CC/N=c1\sc2ccccc2n1CC(O)COc1ccccc1 (stereo unspecified)
EC50 [7]: 29.1 µM (active)
